The values that follow come from patent publication US11377442B2, “Small molecule agonists and antagonists of NR2F6 activity” (ZANDER THERAPEUTICS, INC., priority 2016, dated 2022).

Molecules are shown by their SMILES.

Holding throughout (type): cell-based
One series deals with HEK293 pGL4. Description: Firefly_pGL signal, cmpd/DMSO (pGL4 control cells). The note with it: Homo sapiens, HEK293, Table 14, read-out: Firefly pGL4, cmpd/DMSO (mean).
For another series, the target named is T1, NR2F6 (Homo sapiens, UniProt P10588).
T1 construct: expressed in transfected cells; also transient transfection
T1 sequence (P10588 1-404): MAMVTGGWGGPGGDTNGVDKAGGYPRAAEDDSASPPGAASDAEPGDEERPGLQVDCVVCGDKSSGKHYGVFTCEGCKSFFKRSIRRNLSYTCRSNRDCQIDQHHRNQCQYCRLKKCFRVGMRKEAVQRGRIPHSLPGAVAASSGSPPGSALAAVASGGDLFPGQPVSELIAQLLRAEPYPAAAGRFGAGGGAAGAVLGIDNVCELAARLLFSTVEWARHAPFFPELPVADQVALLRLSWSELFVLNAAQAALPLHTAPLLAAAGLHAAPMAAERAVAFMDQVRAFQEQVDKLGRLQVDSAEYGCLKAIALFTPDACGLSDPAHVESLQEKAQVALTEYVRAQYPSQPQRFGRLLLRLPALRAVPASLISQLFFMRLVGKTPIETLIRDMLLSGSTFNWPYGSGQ
Description: NR2F6 agonist screening, Firefly signal cmpd/DMSO. The note with it: for Firefly F4, cmpd/DMSO (mean): Table 14; for activity (in words): screening result.

The subject of another series is Renilla. The series can be described thus: Renilla signal in NR2F6 agonist screening, cmpd/DMSO. The following applies: Renilla, Table 14, read-out: Renilla F4, cmpd/DMSO (mean).

Turning to `Cc1ccc(NC(=O)c2noc3c2CC(C)CC3)cc1C` (stereo not drawn) [Compound E53], the values for the fold induction at 2 µM in the series on HEK293 pGL4 and in the series with Renilla were 1.5 and 0.9, respectively. Further, the fold induction at 10 µM worked out at 1.4 in the series with HEK293 pGL4 and 0.8 in the series on Renilla. Moreover, the fold induction at 40 µM with HEK293 pGL4 was 1.6; in the series with Renilla, 1.1. The “cytotox effect (decreasing both renilla and firefly activity)” value at NR2F6 (NR2F6 agonist activity confirmation) is recorded as “strong cytotox effect”. For the same compound, the “Firefly F4, cmpd/DMSO (mean)” value at NR2F6 (2 uM) is reported as 1.0; on NR2F6 (10 uM), 1.1; on NR2F6 (40 uM), 1.4. In addition, the “increase of firefly activity” value at NR2F6 (at 10 uM) came to 6 times. The “firefly signal over DMSO level” value on NR2F6 (at 10 uM and 50 uM) is on record as around 3 times.
For `CCn1cc2c(n1)c(=O)n(Cc1ccccc1)c(=O)n2CC(=O)Nc1ccc(Br)cc1` [Compound L1], the fold induction at 2 µM in the series with HEK293 pGL4 and in the series with Renilla was 0.8 throughout. Also, the fold induction at 10 µM in the series on HEK293 pGL4 is 0.4; in the series with Renilla, 0.8. Also, the fold induction at 40 µM in the series on HEK293 pGL4 worked out at 0.8; with Renilla it was 0.7. Moreover, the “Firefly F4, cmpd/DMSO (mean)” value at NR2F6 (2 uM) was 0.9; at NR2F6 (10 uM) it was 0.5; on NR2F6 (40 uM), 0.5.
In the case of `CCOC(=O)c1cnc2c(C)cc(C)cc2c1NCCCN(C)C` [Compound Z54], the fold induction at 2 µM turned out to be 1.1 with HEK293 pGL4 and 0.7 in the series on Renilla. The fold induction at 10 µM is 1.9 with HEK293 pGL4 and 0.3 with Renilla. Moreover, the fold induction at 40 µM in the series with HEK293 pGL4 was 0.8; with Renilla, 0.2. The “Firefly F4, cmpd/DMSO (mean)” value on NR2F6 (2 uM) amounted to 0.8; on NR2F6 (10 uM), 1.6; at NR2F6 (40 uM) it was 0.6. Also, the “activity (in words)” value at NR2F6 is given as “particularly good activity”.
For `Cc1cc(C)n2nc(CNS(=O)(=O)c3c(F)c(F)c(F)c(F)c3F)nc2n1` [Compound Z55], the fold induction at 2 µM in the series with HEK293 pGL4 and in the series with Renilla was 0.8 throughout. Also, the fold induction at 10 µM turned out to be 0.7 with HEK293 pGL4 and 0.3 with Renilla. For the same compound, the fold induction at 40 µM with HEK293 pGL4 worked out at 2.3; in the series on Renilla, 0.1. Moreover, the “Firefly F4, cmpd/DMSO (mean)” value was 1.1 at NR2F6 (2 uM), 0.8 on NR2F6 (10 uM) and 2.0 at NR2F6 (40 uM). Also, the “activity (in words)” value on NR2F6 was “particularly good activity”.
As to `Cc1cc(C)nc(Sc2nnc(-c3ccc(C)c(S(=O)(=O)N4CCOCC4)c3)c3ccccc23)n1` [Compound Z56], the fold induction at 2 µM was found to be 1.2 in the series on HEK293 pGL4 and 0.9 in the series with Renilla. For the same compound, the figures for the fold induction at 10 µM in the series on HEK293 pGL4 and in the series with Renilla were 8.9 and 0.3, respectively. The fold induction at 40 µM with HEK293 pGL4 came out at 1.2; in the series on Renilla, 0.2. Besides, the results for the “Firefly F4, cmpd/DMSO (mean)” value at NR2F6 (2 uM), at NR2F6 (10 uM) and at NR2F6 (40 uM) were 1.2, 2.1 and 0.5, respectively. Moreover, the “activity (in words)” value at NR2F6 is given as “particularly good activity”.
For `CCOC(=O)c1cnc2c(C)cc(C)cc2c1NCc1ccccc1` [Compound Z74], the fold induction at 2 µM with HEK293 pGL4 was found to be 0.7; with Renilla it was 0.8. In addition, the results for the fold induction at 10 µM in the series with HEK293 pGL4 and with Renilla were 0.6 and 0.2, respectively. The values for the fold induction at 40 µM in the series on HEK293 pGL4 and in the series on Renilla were 0.7 and 0.3, respectively. Moreover, the “Firefly F4, cmpd/DMSO (mean)” value at NR2F6 (2 uM) is reported as 0.7; at NR2F6 (10 uM), 0.5; on NR2F6 (40 uM), 0.7.
With `CCOC(=O)c1cnc2c(C)cc(C)cc2c1N1CCC(CO)CC1` [Compound Z79], the fold induction at 2 µM came to 0.8 with HEK293 pGL4 and 0.9 in the series with Renilla. Also, the fold induction at 10 µM in the series with HEK293 pGL4 amounted to 0.5; in the series on Renilla, 0.6. In addition, the fold induction at 40 µM in the series on HEK293 pGL4 worked out at 0.8; in the series on Renilla, 0.2. In addition, the “Firefly F4, cmpd/DMSO (mean)” value is 0.9 at NR2F6 (2 uM), 0.5 at NR2F6 (10 uM) and 0.3 at NR2F6 (40 uM).
`COC(=O)c1cnc2c(C)cc(C)cc2c1NCCCN(C)C` [Compound Z81]: the fold induction at 2 µM with HEK293 pGL4 worked out at 1.4; with Renilla, 1.1. For the same compound, the fold induction at 10 µM in the series with HEK293 pGL4 was found to be 0.9; in the series on Renilla it was 0.3. Moreover, the fold induction at 40 µM with HEK293 pGL4 came to 0.7; in the series with Renilla it was 0.3. Further, the “Firefly F4, cmpd/DMSO (mean)” value on NR2F6 (2 uM) was 2.4; on NR2F6 (10 uM), 0.7; on NR2F6 (40 uM) it was 0.4.
Consider `Cc1cc(C)c2ncc(C(N)=O)c(NCCCN(C)C)c2c1` [Compound Z83], for which the fold induction at 2 µM with HEK293 pGL4 and in the series on Renilla was 1 in each case. Besides, the fold induction at 10 µM in the series with HEK293 pGL4 is 0.9; with Renilla, 0.8. In addition, the fold induction at 40 µM came out at 0.5 in the series on HEK293 pGL4 and 0.3 in the series on Renilla. For the same compound, the results for the “Firefly F4, cmpd/DMSO (mean)” value at NR2F6 (2 uM), at NR2F6 (10 uM) and at NR2F6 (40 uM) were 1.2, 0.6 and 0.7, respectively.
Consider `CCOC(=O)c1cnc2c(C)cccc2c1NCCCN(C)C` [Compound Z90], for which the figures for the fold induction at 2 µM in the series with HEK293 pGL4 and in the series on Renilla were 0.7 and 0.9, respectively. Moreover, the figures for the fold induction at 10 µM with HEK293 pGL4 and in the series with Renilla were 2.4 and 0.2, respectively. For the same compound, the fold induction at 40 µM in the series on HEK293 pGL4 is 0.7; in the series with Renilla, 0.1. Besides, the “Firefly F4, cmpd/DMSO (mean)” value on NR2F6 (2 uM) was found to be 0.7; on NR2F6 (10 uM), 2.5; at NR2F6 (40 uM), 0.4.
With `Cc1cc(C)n2nc(CNS(=O)(=O)c3ccc(Cl)cc3)nc2n1` [Compound Z91], the fold induction at 2 µM came out at 1 in the series on HEK293 pGL4 and 1.1 with Renilla. Further, the fold induction at 10 µM was determined as 1 in the series on HEK293 pGL4 and 1.1 with Renilla. The fold induction at 40 µM in the series on HEK293 pGL4 was 1.1; in the series with Renilla, 0.8. The “Firefly F4, cmpd/DMSO (mean)” value on NR2F6 (2 uM) stood at 1.0; on NR2F6 (10 uM) it was 1.1; on NR2F6 (40 uM), 1.3.
